Reference: article PMC5688144, “Assay interference and off-target liabilities of reported histone acetyltransferase inhibitors” (Nature Communications, 2017)

Legend:
[1] = Fluorescence quenching counter-screen; format: physicochemical; conditions: 10 μM fluorophore; 32 nM-100 μM compound
Procedure: Selected test compounds were assessed for fluorescence quenching using adaptions of previously published procedures[9],[24]. Briefly, test compounds and individual fluorophore standards were incubated together. The fluorescence intensity of these mixtures was compared to the fluorescence intensity of the same fluorophore standards minus test compounds. Each microplate contained positive control columns (DMSO plus fixed concentration of a single fluorophore), negative control columns (DMSO), and experimental wells (test compounds plus fixed concentration of a single fluorophore). […] Final concentration of DMSO was constant at 2.0% (v/v). […] All measurements were performed in ALARM NMR buffer (25 mM sodium phosphate, pH 7.0) at 25 °C. Aliquots of 20 μL buffer were dispensed into microplate wells via ThermoFisher Multidrop dispenser. Microplates were shaken for 1 min on a plate shaker, centrifuged briefly for 1 min at 1000×g, then allowed to incubate at RT for 10 min before measuring fluorescence intensity on a SpectraMax M3 plate reader under reduced lighting. Instrument settings for each fluorophore were unchanged from the aforementioned autofluorescence studies.

[2] = Autofluorescence counter-screen; format: physicochemical; conditions: for Fluorescence counter-screen: autofluorescence at eight fluorophore settings, 32 nM-100 μM compound
Procedure: Selected test compounds were assessed for autofluorescence using an adaption of published procedures. […] Final concentration of DMSO was constant at 1.0% (v/v). Compounds and fluorophore standards were transferred as 10 mM DMSO stock solutions to 384-well black polystyrene microplates via Echo 550 dispenser. The plate arrangement was purposefully designed to minimize optical crosstalk by fluorophore standards. All measurements were performed in ALARM NMR buffer (25 mM sodium phosphate, pH 7.0) at 25 °C. Aliquots of 20 μL buffer were dispensed into microplate wells via ThermoFisher Multidrop dispenser. Compounds were shaken for 1 min on a plate shaker, centrifuged briefly for 1 min at 1000×g, then allowed to incubate at RT in buffer for 10 min before measuring fluorescence intensity on a SpectraMax M3 plate reader under reduced lighting. […] Bandwidth filters were set to default mode. Fluorescence intensity was measured for each test compound using each of the eight fluorophore standard settings. Fluorophores present on each plate were then used to construct normalized fluorescence dose-responses (“fluorophore-equivalent concentrations”, FEC). Fluorescence intensity for each test compound was converted to the appropriate FEC.

[3] = target: T1, human La antigen (Homo sapiens, UniProt P05455, T302N); test: ALARM NMR; format: binding; conditions: 400 μM compound; for ALARM NMR, (-) DTT: 0 mM DTT; for ALARM NMR, (+) DTT: DTT present; for ALARM NMR interpretation: with and without DTT
T1 construct: amino acids 100–324 of the human La antigen (plus T302N mutation); 6xHis (N); 6xHis (C); host or cells: Escherichia coli Rosetta cells
T1 sequence (P05455 100-324 T302N): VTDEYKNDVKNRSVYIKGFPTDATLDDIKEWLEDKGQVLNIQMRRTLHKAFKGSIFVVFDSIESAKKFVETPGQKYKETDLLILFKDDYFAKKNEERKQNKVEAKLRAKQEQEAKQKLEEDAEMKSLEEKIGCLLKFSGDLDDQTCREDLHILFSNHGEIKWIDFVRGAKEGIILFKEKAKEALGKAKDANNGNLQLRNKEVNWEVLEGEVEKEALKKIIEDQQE
Procedure, shortened: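 Construct is La residues 100–324, His-tagged, with Ile/Val methyls 13C-labelled, pre-reduced with DTT and then dialysed. Protein (50 μM) was incubated with 400 μM compound ± 20 mM DTT in 25 mM sodium phosphate pH 7.0, 4% DMSO, for 1 h at 37 °C then 15 h at 30 °C. [1H-13C]-HMQC was recorded at 298 K, and shift or intensity changes were scored against DMSO controls.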

[4] = UPLC-MS gross compound stability in assay buffer; conditions: 25 mM sodium phosphate, pH 7.0, 30 °C, no GSH or CoA
Procedure: Select compounds were incubated up to 24 h for additional stability analyses. Chromatograms and mass spectra were qualitatively analyzed for the formation of new peaks and/or loss of parent peaks.

SMILES | Quenching counter-screen [1] | Fluorescence counter-screen [2] | ALARM NMR, (-) DTT [3] | ALARM NMR, (+) DTT [3] | ALARM NMR interpretation [3] | UPLC-MS buffer stability counter-screen [4] | ALARM NMR readout ([3]; overall readout) | Fluorophore interference ([2]; fluorophore settings with autofluorescence)
O=C1/C(=C/c2ccc(O)c(Br)c2)CCC/C1=C\c1ccc(O)c(Br)c1 [Compound 12, HAT inhibitor II] | Flagged (Significant fluorescence quenching was defined as signal reduction greater than 25% of the corresponding fluorophore signal at any test compound concentration) | Negative | Partial | Negative | Equivocal | Gross degradation observed; loss of parent peak |  | 
Cc1cc(O)cc(C)c1C=C1C(=O)N(Cc2ccccc2)C(=O)N(Cc2ccccc2)C1=O [Compound 4, EML425] | Flagged (Significant fluorescence quenching was defined as signal reduction greater than 25% of the corresponding fluorophore signal at any test compound concentration) | Negative | Positive | Negative | Thiol-reactive | Grossly stable | positive | 
CC1=NN(c2ccc(C(=O)O)cc2)C(=O)/C1=C/c1ccc(-c2cc(C)c(C)cc2[N+](=O)[O-])o1 [Compound 1, C646] | Flagged (Significant fluorescence quenching was defined as signal reduction greater than 25% of the corresponding fluorophore signal at any test compound concentration) | Negative | positive | Negative | Thiol-reactive | Gross degradation observed; loss of parent peak, appearance of new peaks |  | 
Clc1ccc(-c2csc(NN=C3CCCC3)n2)cc1 [Compound 7, CPTH2] | Flagged (Significant fluorescence quenching was defined as signal reduction greater than 25% of the corresponding fluorophore signal at any test compound concentration) | Negative | Positive | Negative | Thiol-reactive | Gross degradation observed; loss of parent peak, appearance of new peaks |  | 
C=C1C(=O)O[C@H](CCC)[C@H]1C(=O)O [Compound 6, MB-3] | Flagged (Significant fluorescence quenching was defined as signal reduction greater than 25% of the corresponding fluorophore signal at any test compound concentration) | Negative | Positive | Negative | Thiol-reactive | Grossly stable |  | 
O=C(O[C@@H]1Cc2c(O)cc(O)cc2O[C@@H]1c1cc(O)c(O)c(O)c1)c1cc(O)c(O)c(O)c1 [Compound 10, (-)-Epigallocatechin gallate] | Flagged (Significant fluorescence quenching was defined as signal reduction greater than 25% of the corresponding fluorophore signal at any test compound concentration) | Negative | Positive | Negative | Thiol-reactive | Gross degradation observed; loss of parent peak, appearance of new peaks |  | 
O=c1c2cccnc2sn1Cc1ccc(C(F)(F)F)cc1 [Compound 3, PU141] | Negative | Flagged (Significant autofluorescence was defined as compounds with FECs greater than 100 nM at any compound concentration) | Positive | Negative | Thiol-reactive | Grossly stable |  | 4MU, AlexaFluor 350
CCCCCCCCCCCC1=C(O)C(=O)C=C(O)C1=O [Compound 9, Embelin] | Flagged (Significant fluorescence quenching was defined as signal reduction greater than 25% of the corresponding fluorophore signal at any test compound concentration) | Negative | Positive | Positive | Thiol-reactive, nonspecific perturbation | Grossly stable |  | 
COc1ccc(S(=O)(=O)ON=C2C=C(C)C(=O)C(C)=C2)cc1 [Compound 5, L002] | Negative | Negative | Positive | Negative | Thiol-reactive | Gross degradation observed; loss of parent peak |  | 
